{"source": "patent US11998642B2", "about": "(priority 2011, dated 2024)", "key": {"[1]": {"settings": "cited from earlier work"}, "[2]": {"settings": "cited from earlier work", "remark": "listed apart in the source"}, "cell membrane": {"tested_on": "cell membrane", "settings": "Xu & McLeod 2001; cited from earlier work"}, "WT αHL pore": {"biological_target": "WT αHL pore (Staphylococcus aureus, UniProt P09616)", "sequence (P09616 27-319 limits assumed)": "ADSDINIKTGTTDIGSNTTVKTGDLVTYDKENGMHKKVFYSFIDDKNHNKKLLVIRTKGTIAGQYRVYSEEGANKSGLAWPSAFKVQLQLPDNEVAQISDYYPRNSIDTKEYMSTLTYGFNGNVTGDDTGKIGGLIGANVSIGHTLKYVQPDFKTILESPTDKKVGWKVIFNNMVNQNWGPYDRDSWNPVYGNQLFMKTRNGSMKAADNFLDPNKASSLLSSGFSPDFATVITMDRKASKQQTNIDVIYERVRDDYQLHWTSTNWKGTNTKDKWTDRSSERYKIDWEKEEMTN", "format": "biochemical, staphylococcal", "settings": "pH 8"}, "αHL": {"biological_target": "αHL (Staphylococcus aureus, UniProt P09616)", "sequence (P09616 27-319 limits assumed)": "as above", "settings": "pH 7; cited from earlier work"}}, "note": "Read-outs that look alike come from different tables or passages of the source."}
{"compound": "O=C(O)CN(CCN(CC(=O)O)CC(=O)O)CC(=O)O", "note": "[EDTA]", "values": [{"measurement": "koff for Ca^2+ dissociation", "setting": "[1]; Naraghi 1997, Johnson et al. 1999", "result": "< 1", "unit": "s⁻¹"}]}
{"compound": "CC/C(=C(\\c1ccc(O)cc1)c1ccc(OCCN(C)C)cc1)c1ccc(C(C)C)cc1", "note": "[Miproxifene, miproxifene]", "values": [{"measurement": "water solubility less than miproxifene phosphate", "setting": "[2]; relative to miproxifene phosphate", "result": "1,000 times"}]}
{"compound": "COc1cccc2c1C(=O)c1c(O)c3c(c(O)c1C2=O)C[C@@](O)(C(=O)CO)C[C@@H]3O[C@H]1C[C@H](N)[C@H](O)[C@H](C)O1", "note": "[doxorubicin]", "values": [{"measurement": "permeability to the cell membrane", "setting": "cell membrane", "result": "able to access the cytosol and is"}]}
{"compound": "OC[C@H]1O[C@@H]2O[C@H]3[C@H](O)[C@@H](O)[C@@H](O[C@H]4[C@H](O)[C@@H](O)[C@@H](O[C@H]5[C@H](O)[C@@H](O)[C@@H](O[C@H]6[C@H](O)[C@@H](O)[C@@H](O[C@H]7[C@H](O)[C@@H](O)[C@@H](O[C@H]8[C@H](O)[C@@H](O)[C@@H](O[C@H]9[C@H](O)[C@@H](O)[C@@H](O[C@H]1[C@H](O)[C@H]2O)O[C@@H]9CO)O[C@@H]8CO)O[C@@H]7CO)O[C@@H]6CO)O[C@@H]5CO)O[C@@H]4CO)O[C@@H]3CO", "note": "[γCD, γ-cyclodextrin]", "values": [{"measurement": "current blockade (blocking) amplitude, mean±s.d.", "setting": "WT αHL pore", "result": "63.7±2.0", "unit": "%"}, {"measurement": "dissociation rate, mean±s.d.", "setting": "WT αHL pore", "result": "4.0 ± 0.6", "unit": "s⁻¹"}, {"measurement": "blocking amplitude", "setting": "αHL", "result": "~60", "unit": "%"}, {"measurement": "dissociation rate", "setting": "αHL", "result": 2.0, "unit": "s⁻¹"}]}
{"compound": "fluo-4", "values": [{"measurement": "koff for Ca^2+ dissociation", "setting": "[1]", "result": "~400", "unit": "s⁻¹"}]}
{"compound": "miproxifene phosphate", "values": [{"measurement": "aqueous solubility greater than miproxifene", "setting": "[2]; relative to miproxifene, Rautio et al. 2008", "result": "1,000 fold"}]}
